The values that follow come from patent US6248309A, “Gums containing antimicrobial agents” (priority 1999, dated 2001).

Assay [1] deals with Porphyromonas gingivalis (PG). Briefly: MIC of individual antimicrobial agents (Example 4). Format: cell-based, Porphyromonas gingivalis ATCC 33277. Conditions: Table 18. The text has this: (§1) The following example illustrates how antimicrobial agents useful in gum compositions of the present invention retard or prevent the growth of dental plaque bacteria present in the oral cavity. In addition, the example illustrates the lowest concentration of various antimicrobial agents that will inhibit visible in vitro growth of a particular bacteria.
(§2) The assay used a microtiter plate to dilute the antimicrobial agent to varying concentrations in order to determine the MIC.
(§3) A bacteria culture was incubated overnight at 37° C. Prior to dilution of the antimicrobial agents as described below, the bacterial culture was spun down at 2000 rpm into a pellet and resuspended in a solution of buffered phosphate. […]
(§4) The 96-well plate was incubated under conditions that varied depending on the particular microorganism. […] Following 48 hours of incubation, the incubated plate was read for microbial growth with a spectraphotometer by optical density (OD). The well containing the lowest dilution achievable with a spectraphotometer reading below 0.05 OD (i.e., no detectable microbial growth) was considered representative for the antimicrobial agent. The MIC for the agent was determined by accounting for the starting stock solution concentration and the resulting dilutions in the 96-well plate. […]

Assay [2] deals with Streptococcus sanguis (SS). The assay is described as follows: MIC of agents alone and in two-agent combination (Example 1). Format: cell-based, Streptococcus sanguis ATCC 49295. Conditions: concentration of chloramphenicol (agent A). The procedure:
(§5) The following example illustrates how the MIC of individual antimicrobial agents that are combined were determined and also illustrates how the MIC of the antimicrobial agents in combination were determined.
(§6) A microtiter plate was used to dilute the antimicrobial agents to varying concentrations in order to determine the MIC of those antimicrobial agents alone and the MIC of the agents when combined.
(§7) A bacterial culture was incubated at 37° C. Prior to the dilution of the antimicrobial agents as described below, the bacterial culture was spun down at 2,000 rpm into a pellet and resuspended in a solution of buffered phosphate. The innoculum was normalized with a spectrophotometer to an optical density at 550 nanometers of between 0.180-0.220 (equivalent to 5.0×10^7 colony forming units, CFU per milliliter). The innoculum was set aside until the completion of the antimicrobial agent dilution. […]
(§8) Following 48 hours of incubation, the incubated plate was read for microbial growth with a spectrophotometer by optical density (OD). The well containing the lowest dilution achievable for each agent with a spectrophotometer reading below 0.05 OD (i.e., no detectable microbial growth) was considered representative for the combination. The MIC for each agent in the combination was determined by accounting for the starting stock solution concentration and the resulting dilutions in the 96-well plate. […]

Assay [3] relates to Fusobacterium nucleatum (FN). Briefly: MIC of individual antimicrobial agents (Example 4). Conditions: Table 18. Format: cell-based, Fusobacterium nucleatum ATCC 10933.
Text: as §1, §2, §3, §4

Assay [4] deals with Porphyromonas gingivalis (PG). The assay is described as follows: MIC of agents alone and in two-agent combination (Example 1). Format: cell-based, Porphyromonas gingivalis ATCC 33277. Conditions: concentration of chloramphenicol (agent A). The procedure: as §5, §6, §7, §8
In assay [5] the test system is Fusobacterium nucleatum (FN). The assay is described as above. Format: cell-based, Fusobacterium nucleatum ATCC 10933. Conditions: concentration of chloramphenicol (agent A). The procedure:
as §5, §6, §7, §8

Assay [6] relates to Streptococcus mutans (SM). Briefly: MIC of individual antimicrobial agents (Example 4). Conditions: Table 18. Format: cell-based, Streptococcus mutans ATCC 25175.
Text: as §1, §2, §3, §4

Assay [7] concerns Streptococcus sanguis (SS). Briefly: MIC of individual antimicrobial agents (Example 4). Format: cell-based, Streptococcus sanguis ATCC 49295. Conditions: Table 18.
Text: as §1, §2, §3, §4

Assay [8] has as its system Actinomyces viscosus (AV). Briefly: MIC of individual antimicrobial agents (Example 4). Format: cell-based, Actinomyces viscosus ATCC 19246. Conditions: Table 18.
Text: as §1, §2, §3, §4

Assay [9] has as its system Actinomyces viscosus (AV). The assay is described as follows: MIC of agents alone and in two-agent combination (Example 1). Format: cell-based, Actinomyces viscosus ATCC 19246. Conditions: concentration of chloramphenicol (agent A). The method, then: as §5, §6, §7, §8
The test system of assay [10] is Streptococcus mutans (SM). Described as above. Conditions: concentration of chloramphenicol (agent A). Format: cell-based, Streptococcus mutans ATCC 25175. The method, then: as §5, §6, §7, §8

As to `O=C(NC(CO)C(O)c1ccc([N+](=O)[O-])cc1)C(Cl)Cl` (stereo not shown) [CR1, 2,2-dichloro-N-[2-hydroxyl-1-(hydroxymethyl)-2-(4-nitrophenyl)ethyl]acetamide], the MIC in assay [1] is 6.3 µg/mL; in assay [3], 3.1 µg/mL; in assay [6] it was 3.1 µg/mL; in assay [7], 3.1 µg/mL; in assay [8] it was 3.1 µg/mL. Further, the “MIC of Chloramphenicol alone and when combined with Agent B” value was determined as 3.2 µg/mL in [2]; 6.9 µg/mL in [4]; 1.8 µg/mL in assay [5]; 5.4 µg/mL in assay [9]; 5.2 µg/mL in [10].
